Laboratory results published in ChEMBL document CHEMBL1165847, “Urotensin-II receptor modulators as potential drugs” (J Med Chem, 2010).
Where a name gives a salt, the structure may show the parent alone. Activity calls are given as the source filed them. The rule behind the calls is not given here. Where a SMILES comes first, the peptide text is derived from it.

Experiments:
[1] = Oral bioavailability in rat; assay type: ADME, organism-based; details: in vivo
Rattus norvegicus [2] = assay: Decrease in urotensin-2-induced temperature of ear pinna in rat ear-flush model at 10 ug/ml, iv for 15 mins; assay type: functional, organism-based
[3] = target: T1, Urotensin-2 receptor (Rattus norvegicus) (UniProt P49684); assay: Antagonist activity at rat urotensin 2 receptor expressed in CHO cells assessed as calcium mobilization at 100 nM by FLIPR; assay type: functional, cell-based
T1 sequence (whole entry): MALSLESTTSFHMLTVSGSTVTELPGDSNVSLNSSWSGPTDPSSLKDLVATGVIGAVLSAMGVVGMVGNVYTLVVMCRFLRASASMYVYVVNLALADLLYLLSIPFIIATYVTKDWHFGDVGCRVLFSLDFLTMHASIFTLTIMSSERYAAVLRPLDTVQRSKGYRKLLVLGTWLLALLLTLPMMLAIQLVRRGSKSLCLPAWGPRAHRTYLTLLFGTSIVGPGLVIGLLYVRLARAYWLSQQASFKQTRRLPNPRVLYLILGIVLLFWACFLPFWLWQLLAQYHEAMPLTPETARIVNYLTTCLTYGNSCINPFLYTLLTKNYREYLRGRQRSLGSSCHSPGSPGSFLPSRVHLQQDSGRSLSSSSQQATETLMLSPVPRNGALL

Urotensin-2 receptor [4] = target: T2, Urotensin-2 receptor (Rattus norvegicus, UniProt P49684); assay: Agonist activity at rat urotensin 2 receptor expressed in CHO cells assessed as calcium mobilization at 1000 nM by FLIPR; assay type: functional, cell-based
T2 sequence (P49684 whole entry): T1 sequence (whole entry)

Urotensin-2 receptor [5] = target: T3, Urotensin-2 receptor (Homo sapiens, UniProt Q9UKP6); assay: Binding affinity to human urotensin 2 receptor
T3 sequence (Q9UKP6 whole entry): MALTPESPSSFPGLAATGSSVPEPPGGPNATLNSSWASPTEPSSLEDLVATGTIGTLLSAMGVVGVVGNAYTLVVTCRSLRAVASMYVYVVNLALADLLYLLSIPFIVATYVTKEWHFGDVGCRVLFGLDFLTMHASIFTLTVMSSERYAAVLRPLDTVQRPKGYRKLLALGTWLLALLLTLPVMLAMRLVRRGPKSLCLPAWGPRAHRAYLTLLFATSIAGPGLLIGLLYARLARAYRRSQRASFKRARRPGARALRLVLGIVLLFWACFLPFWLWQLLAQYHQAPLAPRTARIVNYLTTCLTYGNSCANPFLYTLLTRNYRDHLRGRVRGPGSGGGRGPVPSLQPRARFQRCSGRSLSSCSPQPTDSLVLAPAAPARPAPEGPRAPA

Urotensin-2 receptor [6] = target: T2, Urotensin-2 receptor; assay: Displacement of [125I]U2 from rat urotensin 2 receptor expressed in CHO cells; assay type: cell-based
Urotensin-2 receptor [7] = target: T3, Urotensin-2 receptor; assay: Agonist activity at human urotensin 2 expressed in CHO cells by FLIPR; assay type: functional, cell-based
Urotensin-2 receptor [8] = target: T2, Urotensin-2 receptor; assay: Agonist activity at rat urotensin 2 receptor expressed in CHO cells assessed as calcium mobilization by FLIPR; assay type: functional, cell-based
[9] = target: T1, Urotensin-2 receptor (Rattus norvegicus); assay: Antagonist activity at rat urotensin 2 receptor expressed in CHO cells assessed as calcium mobilization at 300 nM by FLIPR; assay type: functional, cell-based
[10] = target: T1, Urotensin-2 receptor (Rattus norvegicus); assay: Agonist activity at rat urotensin 2 receptor expressed in CHO cells assessed as calcium mobilization at 500 nM by FLIPR; assay type: functional, cell-based
Urotensin-2 receptor [11] = target: T2, Urotensin-2 receptor; assay: Antagonist activity at rat urotensin 2 receptor expressed in CHO cells assessed as calcium mobilization by FLIPR; assay type: functional, cell-based
Aorta = assay: Vasorelaxation activity against urotensin-2-induced contraction in isolated rat aorta assessed as restoration of renal blood flow at 10 mg/kg/hr, iv; assay type: functional, organism-based
Urotensin-2 receptor [12] = target: T4, Urotensin-2 receptor (Macaca mulatta, UniProt Q8HYC3); assay: Binding affinity to monkey urotensin 2 receptor
T4 sequence (Q8HYC3 whole entry): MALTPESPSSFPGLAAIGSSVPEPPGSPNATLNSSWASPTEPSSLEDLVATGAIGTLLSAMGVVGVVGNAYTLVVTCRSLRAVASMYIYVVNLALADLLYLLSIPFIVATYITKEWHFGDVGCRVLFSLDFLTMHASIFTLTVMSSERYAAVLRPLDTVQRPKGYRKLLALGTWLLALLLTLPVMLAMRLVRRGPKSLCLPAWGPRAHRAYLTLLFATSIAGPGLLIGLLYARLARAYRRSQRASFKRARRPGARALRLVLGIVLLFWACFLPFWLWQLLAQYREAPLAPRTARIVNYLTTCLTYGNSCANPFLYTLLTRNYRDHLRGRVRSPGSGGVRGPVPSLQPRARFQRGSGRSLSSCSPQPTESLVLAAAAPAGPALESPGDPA

Urotensin-2 receptor [13] = target: T5, Urotensin-2 receptor (Mus musculus, UniProt Q8VIH9); assay: Binding affinity to mouse urotensin 2 receptor
T5 sequence (Q8VIH9 whole entry): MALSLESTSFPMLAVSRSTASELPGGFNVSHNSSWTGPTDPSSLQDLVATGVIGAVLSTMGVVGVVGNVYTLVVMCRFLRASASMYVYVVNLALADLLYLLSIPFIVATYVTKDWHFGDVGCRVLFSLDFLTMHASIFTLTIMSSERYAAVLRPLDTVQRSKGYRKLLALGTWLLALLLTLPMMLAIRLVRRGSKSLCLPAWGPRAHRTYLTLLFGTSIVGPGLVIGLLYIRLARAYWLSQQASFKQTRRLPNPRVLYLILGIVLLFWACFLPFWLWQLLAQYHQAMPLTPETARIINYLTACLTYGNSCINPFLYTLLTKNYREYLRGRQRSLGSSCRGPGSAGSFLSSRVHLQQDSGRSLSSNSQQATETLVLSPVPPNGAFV

Urotensin II receptor = target: T6, Urotensin II receptor (Felis catus, UniProt Q533H1); assay: Binding affinity to cat urotensin 2 receptor
T6 sequence (Q533H1 whole entry): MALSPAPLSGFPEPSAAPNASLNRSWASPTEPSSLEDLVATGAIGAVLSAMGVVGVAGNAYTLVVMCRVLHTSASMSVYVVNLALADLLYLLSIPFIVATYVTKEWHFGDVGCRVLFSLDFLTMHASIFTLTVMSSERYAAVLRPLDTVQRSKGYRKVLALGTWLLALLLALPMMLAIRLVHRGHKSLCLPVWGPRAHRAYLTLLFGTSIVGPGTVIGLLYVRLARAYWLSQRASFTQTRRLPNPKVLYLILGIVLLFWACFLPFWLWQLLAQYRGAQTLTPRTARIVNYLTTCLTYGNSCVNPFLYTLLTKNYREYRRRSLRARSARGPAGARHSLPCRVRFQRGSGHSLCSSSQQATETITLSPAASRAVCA

Rattus norvegicus [14] = assay: Plasma concentration in rat at 10 mg/kg, iv; assay type: ADME, organism-based; design: dose 10 mg/kg, route intravenous; details: in vivo
Urotensin-2 receptor [15] = target: T2, Urotensin-2 receptor; assay: Binding affinity to rat urotensin 2 receptor
Mus musculus = assay: Reduction in atherosclerotic lesion size in Apo-E knockout mouse at 30 mg/kg, po qd for 10 weeks; assay type: functional; design: scale not given: the % may be the effect or the level left

## CCN1CCN(c2cccc3c2CN([C@@H](CCCNS(=O)(=O)c2cccs2)c2ccc(OC)c(OC)c2)C3=O)CC1
[1]
  bioavailability: 10%
Rattus norvegicus [2]
  Activity: Active
[3]
  inhibition: 74%

## CC(C)[C@H](NC(=O)c1cc2ccccc2s1)C(=O)N[C@H]1CCN(Cc2ccc(OCCCN(C)C)cc2)C1
Urotensin-2 receptor [4]
  Ki: 600 nM
Urotensin-2 receptor [5]
  Ki: 12 nM

## CN(C)CCCOc1ccc(CN2CC[C@H](NC(=O)c3ccc(Cl)c(Cl)c3)C2)cc1
Urotensin-2 receptor [6]
  Ki: 3.2 nM
Urotensin-2 receptor [7]
  Ki: 250 nM

## CCN1CCN(c2cccc3c2[C@H]2CCC[C@H](c4ccc(OC)c(OC)c4)N2C3=O)CC1
[1]
  bioavailability: 35%
Urotensin-2 receptor [8]
  Ki: 6.3 nM
Urotensin-2 receptor [7]
  Ki: 390 nM

## CC(=O)N[C@@H](Cc1ccccc1)C(=O)N[C@@H](Cc1c[nH]c2ccccc12)C(=O)N[C@@H](CCCCN)C(=O)N[C@@H](Cc1ccc(O)cc1)C(N)=O (Ac-FWKY-NH2)
[9]
  Activity: inactive
[10]
  Activity: 57%
Urotensin-2 receptor [6]; cho
  Ki: < 10000 nM

## Cc1cc(NC(=O)NCCN2CCC(O)(Cc3ccccc3)CC2)c2ccccc2n1 [PALOSURAN SULFATE]
Urotensin-2 receptor [11]
  Ki: > 1000 nM
Urotensin-2 receptor [5]
  IC50: 3.6 nM
  Ki: 5 nM
Aorta
  Activity: Active
Urotensin-2 receptor [12]
  Ki: 4 nM
Urotensin-2 receptor [13]
  Ki: > 1000 nM
Urotensin II receptor
  Ki: > 1000 nM
Rattus norvegicus [14]
  concentration: 5 µM

## CN(C)CCOc1cc(NS(=O)(=O)c2c(Cl)cc(C(F)(F)F)cc2Cl)ccc1Cl [SB611812]
[1]
  bioavailability: 100%
Urotensin-2 receptor [15]
  Ki: 121 nM
Mus musculus
  Activity: 64%
